A short description of data set [1]: Release of labeled macromolecule and labeled polymer backbone from degrading gel network. The data set is classed as physicochemical. The conditions noted are these: pH 7.3, 37° C., monitored at 550 nm (FIG. 7). From the text:
Gels were formed by the same method as above, but in this case other compounds were included during the preparation of the gels to study the release of small molecules from the network. In one case, the network itself was labeled with a polymerizable derivative of tetramethyl rhodamine (TMRAHMAm) in order to show the release (degradation) of the network itself (see FIG. 6). In the other case fluorescent rhodamine labeled albumin (Molecular Probes, Eugene Oreg.) was included in the uncharged network to show diffusive release of a macromolecule from the network (see FIG. 7).
To a 3 mL test tube was charged TMRAHMAm (3.0 mg, 5.0 μmol; 30 μL of a 100 mg/mL solution in CHCl3) which was then placed under a 7 mtorr vacuum for 3 hours. […]
Gels were suspended in buffers of different pH's: All buffers were adjusted to the same ionic strength. The release of the rhodamine labeled albumin and the rhodamine labeled HPMA was monitored at 550 nm. 750 μL of the sample was removed from the vial and periodically measured on a spectrophotometer. […]
The examination of the release of macromolecules entrained in the polymer network provides another way to study the performance of these materials. […] Moreover, the release of a model macromolecular solute (TMRA-albumin, molecular weight of ^˜66,000 Da.) from the network is measured spectrophotometrically.

The conditions of data set [2]: pH 7.3.
Description: (§1) The gels in this section were made at a mole feed ratio of 1.5 mole % cross-linker, as a copolymer with 98.5 mole % HPMA. Before the gels were polymerized, three 1.0 mL plastic syringes to be used as a slab gel template were silylanized by briefly incubating them in a heptane solution containing Sigmacote and oven drying at 90° C.
(§2) The wire was held in place by a septa which was placed over the tip of the syringe, as the solution polymerized. This formed a hole in the center of the cylinder, which was later used as a place to insert a wire hanger for the initially brittle and finally fragile gel, in order to measure its swelling and degradation kinetics as a change of mass with time. Gelation occurred within one to five minutes and the syringe was allowed to sit for 4 hours at room temperature. At this point the wire was removed from the center of the solid and the end of the plastic syringe was removed with a razor blade. The plunger was then used to extrude the gel from the syringe in 100 μL increments which were cut into small cylinders as they hung out from the end of the syringe. The gels were then placed on tarred wire holders and the initial mass of the assembly was determined. The resulting clear isotropic gels had the composition of poly(HPMA-co-HPMAGlySuc) 98.5:1.5. The gels were then incubated in pH 5, 100 mM sodium acetate buffer for 24 hours. They were then charged into vials of differing pH to study the degradation kinetics.
(§3) The gels were placed in 15 mL vials containing 10 mL of buffers. The masses of wire holders were determined before the gels were placed on them. The original mass of the gel in its relaxed state was also known by subtraction from the total mass of the assembly. The original dry mass of the gel was determined by drying three gels in their relaxed state from each composition and determining the dry mass of the gel. These values were then used to calculate the inverse of the volume fraction of polymer in the gel (Qv) respectively, using the densities of the polymer and water. The incubation solutions were changed each time the gel was weighed. The gels were incubated in a gyratory water-bath shaker (New Brunswick Scientific, New Brunswick, N.J.). The temperature was regulated to be 37±2° C. and the shaker was set to 30 rotations per minute.
(§4) The property of the change of volume of the polymer network can be measured by weighing the gel at different time points.
(§5) Since the swelling is related to network cross-link density by weighing the macroscopic gels at various times throughout their swelling one can obtain information about the change in cross-link density and thus the rate of degradation.
A short description of data set [3]: Swelling of acrylic acid / cross-linker water absorbent gel in PBS. The data set is classed as physicochemical. To be noted: acrylic acid gel cross-linked with HPMAGlySuc, after incubating in PBS pH 7.4 for 3 days. The procedure: To a 5 mL test tube was charged acrylic acid (675 μL, 9.85 mmol), water (1120 μL) and HPMAGlySuc (73 mg, 0.15 mmol) (5b). The cross-linker was weighed into the mixture as described earlier. The mixture was homogenized and APS was added (66.6 μL, […]) from a 2.43 M solution in water. This solution was again mixed. To this solution was added TMED (137 μL, 0.287 mmol) from a 2.10 M pH 7.0 solution in water. The mixture was vortexed rapidly for 15 seconds and the polymerizing solution was charged into two 1.0 mL syringes that acted as a mold for the polymerization. The syringes were allowed to sit for four hours. The gel was removed from the syringe and cut into pieces (^˜100 μL cylinders). The mass of the cylinder was recorded and placed in a 20 mL vial containing 18 mL of PBS at pH 7.4. The gels were incubated overnight with buffer. The next day the buffer was changed twice in order to keep a constant external pH as the gel was charged. After incubating in PBS for 3 days the gel has swollen with water to approximately 20 times the total initial polymer volume.

Data set [4] can be described thus: Degradation (degradative swelling) of HPMA-co-cross-linker hydrogels in buffer. To be noted: HPMA-co-XL gels, 1.5 mole % cross-linker, pH 7.3 buffer, 37° C.
Description: as §1, §2, §3, §4, §5

Where two headings read alike, the source gives them in different places.

Take `C=C(C)C(=O)NCC(C)OC(=O)COC(=O)COC(=O)CCC(=O)OCC(=O)OCC(=O)OC(C)CNC(=O)C(=C)C` (stereo not shown) [HPMAGlyGlySuc, di[({[1-methyl-2-(2-methylprop-2-enoylamino)ethyl]oxycarbon-yl}methyl)oxycarbonyl]methylbutane-1,4-dioate]: in data set [1], the “release of rhodamine labeled HPMA polymer backbone” value is “largely occurs to the greatest extent at the onset of complete degradation of the polymer” and the “release of rhodamine labeled albumin from the gel network” value was “more closely follows the swelling of the network”. In data set [2], the “degradation / hydrolysis and swelling kinetics of the gel (in words)” value was “fastest hydrolysis and swelling kinetics”; the “time to complete degradation of the gel” value is on record as “about 5 days”.
For the compound `C=C(C)C(=O)NCC(C)OC(=O)COC(=O)CCC(=O)OCC(=O)OC(C)CNC(=O)C(=C)C` (stereo not shown) [HPMAGlySuc, di{[1-methyl-2-(2-methylprop-2-enoylamino)ethyl]oxycarbonyl}methyl butane-1,4-dioate], in data set [3], the “swelling with water relative to total initial polymer volume” value was “approximately 20 times the total initial polymer volume”.
For the compound `C=C(C)C(=O)NCC(C)OC(=O)[C@H](C)OC(=O)CCC(=O)O[C@@H](C)C(=O)OC(C)CNC(=O)C(=C)C` (stereo partly drawn) [HPMALacSuc, di(1S)-1-{[1-methyl-2-(2-methylprop-2-enoylamino)ethyl]oxycarbonyl}ethyl butane-1,4-dioate], the “degradation / hydrolysis and swelling kinetics of the gel (in words)” value in data set [4] is on record as “slower degradation than the glycolic”.
Turning to `C=C(C)C(=O)NCC(C)OC(=O)CCC(=O)OC(C)CNC(=O)C(=C)C` (stereo not shown) [HPMASuc, bis-1-methyl-2-(2-methylprop-2enoylamino)ethyl-1,4-butanedioate, reference compound], the “degradation / hydrolysis and swelling kinetics of the gel (in words)” value in data set [4] is “non-degradable”.

Source of the values: US6521431B1, “Biodegradable cross-linkers having a polyacid connected to reactive groups for cross-linking polymer filaments” (Access Pharmaceuticals, Inc., priority 1999, dated 2003).
